Assay results from patent publication US11993576B2, “N-benzyl-N-arylsulfonamide derivative and preparation and use thereof” (Hangzhou Yirui Pharmaceutical Technology Co., Ltd, priority 2019, dated 2024).

Target: human Kv1.3 (Homo sapiens, UniProt P22001)
Experiment: IonWorks automated patch clamp assay of inhibitory activity against Kv1.3
Assay type: cell-based
Conditions: automated patch clamp method; CHO-K1 cells stably expressing human Kv1.3
Procedure: I. IonWorks Automated Patch Clamp Assay of Inhibitory Activity Against Kv1.3
The principle and method for Kv1.3 IonWorks assay can be found in Schroeder et al. [Schroeder et al. J Biomol Screen 2003, 8(1):50-64]
Inhibitory activity of the compounds against Kv1.3 was assessed using a CHO-K1 recombinant cell line stably expressing human Kv1.3 (Charles River, Calif.). The cells were cultured in an F-12K culture medium containing 5% calf serum (Invitrogen, Carlsbad. Calif.) in an incubator at 37° C. and under air humidity with 6% CO2. Prior to be fed in the IonWorks system, the adherent cells were treated with Versene at 37° C. for 6-7 min. After gently beating the culture flask, the cells were re-suspended in a PBS phosphate buffer, and then were centrifuged at 50×g for 4 min. After a short grinding, the cells were eventually re-suspended in an external recording solution at a density of approximately 1×10^6/mL.
The compounds were dissolved in DMSO to formulate a final assay concentration of 300× on the master plate. The final gradient assay concentrations were […], 0.096, 0.048, 0.24, 1.2, 6 and 30 μM. All 300× stock solutions of each compound in DMSO were transferred to a 384-well plate with 2 μl per well. The plates were sealed and stored at −80° C. until the day of assay.
On the day of assay, the plates were each thawed at room temperature. After centrifugation, 198 μl of the external recording solution (with the components of: 130 mM Na-Gluconate, 20 mM NaCl, 4 mM KCl, 1 mM MgCl2, 1.8 mM CaCl2, 5 mM Glucose and 10 mM HEPES, pH7.3) was added and mixed thoroughly. This step provided a 1:100 dilution for the compounds. After addition of cells to IonWorks, a further 1:3 dilution was carried out, resulting in a total dilution of 1:300. At least 8 wells were reserved as blank control on each of the plates, i.e., containing only 0.3% DMSO. In addition, at least 8 wells were reserved as positive control to detect the specificity to cell signals. Fluoxetine, a compound as the positive control, was assayed at its maximum blocking concentration (100 μm) and secondary maximum blocking concentration (10 μm). In addition, an internal recording solution used in the assay (with the components of: 100 mM K-gluconate, 40 mM KCl, 1 mM MgCl2, 1 mM EGTA and 10 mM HEPES, pH7.3) contained Amphotericin B at a final concentration of 200 μg/mL to gain current channels inside the cells. The osmotic pressure of the solution was adjusted with sucrose.
Experimental procedures were carried out following the protocols as set by IonWorks Quattro system (Molecular Devices, San Jose, CA). The current of human Kv1.3 was elicited to 0 millivolt (mV) for four times by a pulse lasting 1 second. A potential of −80 mV was maintained between pulses, for 5 seconds. First, a early voltage application program was started in the IonWorks Quattro system, and then the compounds were added and incubated for 600 seconds. Next, a late voltage application program was started until completion of all assays.
The maximum peak outward currents both before and after addition of the compounds as well as the average tail current elicited when the fourth pulse rose to 0 mV were measured. The inhibitory activity of the compounds against Kv1.3 can be calculated by dividing the measured current amplitude after addition of the compounds by the measured current amplitude before addition of the compounds.
All data was calibrated by a data filtration program of the IonWorks Quattro system. The filtration standard was that: seal quality >30 MΩ, decrease of seal resistance <50% and current amplitude >200 pA.

Sequence of human Kv1.3 (P22001 whole entry): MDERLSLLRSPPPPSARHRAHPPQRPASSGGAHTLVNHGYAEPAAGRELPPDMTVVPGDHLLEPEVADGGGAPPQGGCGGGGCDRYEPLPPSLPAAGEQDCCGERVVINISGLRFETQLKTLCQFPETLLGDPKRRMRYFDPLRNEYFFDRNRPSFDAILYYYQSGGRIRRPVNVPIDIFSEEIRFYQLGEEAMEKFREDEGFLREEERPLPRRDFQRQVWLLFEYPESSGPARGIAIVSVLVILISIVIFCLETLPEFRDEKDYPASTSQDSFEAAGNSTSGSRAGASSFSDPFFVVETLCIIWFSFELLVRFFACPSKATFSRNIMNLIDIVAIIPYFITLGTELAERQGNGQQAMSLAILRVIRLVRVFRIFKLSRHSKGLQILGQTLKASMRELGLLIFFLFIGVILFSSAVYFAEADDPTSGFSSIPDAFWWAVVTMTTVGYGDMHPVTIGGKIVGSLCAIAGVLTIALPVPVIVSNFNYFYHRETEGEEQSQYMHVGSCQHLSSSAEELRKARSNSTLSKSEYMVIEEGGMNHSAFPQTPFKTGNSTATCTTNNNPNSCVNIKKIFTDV

Structure (SMILES)	IC50
CCCS(=O)(=O)N(Cc1ccc(F)cc1)c1ccc(OC2CCNCC2)c(C#N)c1 [Compound 50, N-(3-cyano-4-(piperidin-4-yloxy)phenyl)-N-(4-fluorobenzyl) propanesulfonamide]	370 nM
CCCS(=O)(=O)N(Cc1cncn1C)c1ccc(N2CCN(C(=O)OCC)CC2)c(C#N)c1 [Compound 35, Ethyl 4-(2-cyano-4-(N-((1-methyl-1H-imidazol-5-yl)methyl)propanesulfonamido)phenyl)piperazin-1-formate]	201 nM
CCCS(=O)(=O)N(Cc1ccc(OC)cc1)c1ccc(N2CCN(C(=O)OCC)CC2)c(C#N)c1 [Compound 27, Ethyl 4-(2-cyano-4-(N-(4-methoxybenzyl)propanesulfonamido)phenyl)piperazin-1-formate]	239 nM
CN(C)S(=O)(=O)N1CCN(c2ccc(N(Cc3ccc(F)cc3F)S(=O)(=O)CC3CC3)cc2C#N)CC1 [Compound 47, 4-(2-cyano-4-((1-cyclopropyl-N-(2,4-difluorobenzyl)methyl)sulfonamido)phenyl)-N,N-dimethylpiperazin-1-sulfonamide]	124 nM
CCCS(=O)(=O)N(Cc1ccc(F)cc1)c1ccc(SC2CCN(C=O)CC2)c(C#N)c1 [Compound 57, N-(4-((1-formylpiperidin-4-yl)thio)-3-cyanophenyl)-N-(4-fluorobenzyl) propanesulfonamide]	254 nM
CCOC(=O)N1CCN(c2ccc(N(C(=O)c3ccccc3)S(=O)(=O)c3ccccc3)cc2C#N)CC1 [Compound 4, ethyl 4-(2-cyano-4-(N-(benzenesulfonamido)benzamido)phenyl)piperazin-1-formate]	12900 nM
N#Cc1cc(N(Cc2ccc(F)cc2)S(=O)(=O)c2ccccc2)ccc1N1CCOCC1 [Compound 10, N-(3-cyano-4-morpholinylphenyl)-N-(4-fluorobenzyl) benzenesulfonamide]	98 nM
CCOC(=O)N1CCN(c2ccc(N(Cc3ccc(F)cc3)S(=O)(=O)c3ccc(F)cc3)cc2C#N)CC1 [Compound 2, ethyl 4-(2-cyano-4-((4-fluoro-N-(4-fluorobenzyl)phenyl)sulfonamido)phenyl)piperazin-1-formate]	131 nM
CCCS(=O)(=O)N(Cc1ccc(OC)cc1)c1ccc(N2CCN(S(=O)(=O)N(C)C)CC2)c(C#N)c1 [Compound 45, 4-(2-cyano-4-(N-(4-methoxybenzyl)propanesulfonamido)phenyl)-N,N-dimethylpiperazin-1-sulfonamide]	224 nM
CCCS(=O)(=O)N(Cc1ccc(F)cc1)c1ccc(NC2CCN(C=O)CC2)c(C#N)c1 [Compound 58, N-(4-((1-formylpiperidin-4-yl)amino)-3-cyanophenyl)-N-(4-fluoro-benzyl)propanesulfonamide]	279 nM
CCCS(=O)(=O)N(Cc1cscn1)c1ccc(N2CCN(C(=O)OCC)CC2)c(C#N)c1 [Compound 34, Ethyl 4-(2-cyano-4-(N-(thiazol-4-ylmethyl)propanesulfonamido)phenyl) piperazin-1-formate]	645 nM

The remaining compounds from weak to strong by IC50, led by results:

IC50	Structure (SMILES)
9300 nM	CCCN(c1ccc(N2CCN(C(=O)OCC)CC2)c(C#N)c1)S(=O)(=O)c1ccc(F)cc1 [Compound 8, Ethyl 4-(2-cyano-4-((4-fluoro-N-propylphenyl)sulfonamido)phenyl)piperazin-1-formate]
6400 nM	CCOC(=O)N1CCN(c2ccc(N(CC(C)C)S(=O)(=O)c3ccccc3)cc2C#N)CC1 [Compound 13, ethyl 4-(2-cyano-4-(N-isobutylphenylsulfonamido)phenyl)piperazin-1-formate]
1260 nM	N#Cc1cc(N(Cc2ccccc2)S(=O)(=O)c2ccccc2)ccc1N1C(=O)CCCC1=O [Compound 16, N-benzyl-N-(3-cyano-4-(2,6-dioxopiperidin-1-yl)phenyl)benzenesulfonamide]
839 nM	CCCS(=O)(=O)N(Cc1ccco1)c1ccc(N2CCN(C(=O)OCC)CC2)c(C#N)c1 [Compound 33, Ethyl 4-(2-cyano-4-(N-(furan-2-ylmethyl)propanesulfonamido)phenyl) piperazin-1-formate]
412 nM	CCCS(=O)(=O)N(Cc1ccncn1)c1ccc(N2CCN(C(=O)OCC)CC2)c(C#N)c1 [Compound 31, Ethyl 4-(2-cyano-4-(N-(pyrimidin-4-ylmethyl)propanesulfonamido)phenyl) piperazin-1-formate]
412 nM	CCCS(=O)(=O)N(Cc1ccc(F)cc1)c1ccc(SC2CCNCC2)c(C#N)c1 [Compound 51, N-(3-cyano-4-(piperidin-4-ylthio)phenyl)-N-(4-fluorobenzyl) propanesulfonamide]
389 nM	CCCS(=O)(=O)N(Cc1ccc(F)cc1)c1ccc(SC2CCN(C(C)=O)CC2)c(C#N)c1 [Compound 54, N-(4-((1-acetylpiperidin-4-yl)thio)-3-cyanophenyl)-N-(4-fluorobenzyl) propanesulfonamide]
333 nM	CCCS(=O)(=O)N(Cc1ccccc1)c1ccc(N2CCN(C(=O)OCC)CC2)c(C#N)c1 [Compound 22, Ethyl 4-(4-(N-benzylpropanesulfonamido) 2-cyanophenyl)piperazin-1-formate]
332 nM	N#Cc1cc(N(Cc2ccccc2)S(=O)(=O)c2ccccc2)ccc1OC1CCN(C=O)CC1 [Compound 60, N-(4-((1-formylpiperidin-4-yl)oxy)-3-cyanophenyl)-N-benzylbenzenesulfonamide]
288 nM	CCCS(=O)(=O)N(Cc1ccc(F)cc1OC)c1ccc(N2CCN(C(=O)OCC)CC2)c(C#N)c1 [Compound 30, Ethyl 4-(2-cyano-4-(N-(4-fluoro-2-methoxybenzyl)propanesulfonamido)phenyl)piperazin-1-formate]
195 nM	CN(C)C(=O)N1CCN(c2ccc(N(Cc3ccccc3)S(=O)(=O)c3ccccc3)cc2C#N)CC1 [Compound 11, 4-(4-(N-benzylbenzenesulfonamido)-2-cyanophenyl)-N,N-dimethylpiperazin-1-formamide]
134 nM	CCCS(=O)(=O)N(Cc1ccc(F)cc1)c1ccc(N2CCN(C(=O)OCC)CC2)c(C#N)c1 [Compound 9, ethyl 4-(2-cyano-4-(N-(4-fluorobenzyl)propanesulfonamido)phenyl)piperazin-1-formate]
130 nM	CCCS(=O)(=O)N(Cc1ccc(F)cc1)c1ccc(N2CCC(O)CC2)c(C#N)c1 [Compound 19, N-(3-cyano-4-(4-hydroxypiperidin-1-yl)phenyl)-N-(4-fluorobenzyl)propane-1-sulfonamide]
107 nM	CCOC(=O)N1CCN(c2ccc(N(Cc3ccc(F)c(OC)c3)S(=O)(=O)c3ccc(F)cc3)cc2C#N)CC1 [Compound 3, ethyl 4-(2-cyano-4-((4-fluoro-N-(4-fluoro-3-methoxybenzyl)phenyl)sulfonamido)phenyl)piperazin-1-formate]
101 nM	CCCCS(=O)(=O)N(Cc1ccc(F)cc1)c1ccc(N2CCN(C(=O)N(C)C)CC2)c(C#N)c1 [Compound 38, 4-(2-cyano-4-(N-(4-fluorobenzyl)butanesulfonamido)phenyl)-N,N-dimethylpiperazin-1-formamide]
